ChEMBL document CHEMBL5131397, “Discovery and Optimization of Pyrazole Amides as Inhibitors of ELOVL1” (J Med Chem, 2021)
Activity calls are given as the source filed them. No cut-off for these calls is given here.

Key:
[1] = Oral bioavailability in Sprague-Dawley rat at 3 mg/kg upto 24 hrs by LC/MS/MS analysis; format: ADME, organism-based; settings: in vivo
[2] = Efflux ratio of permeability across […] in dog MDCK-MDR1 transfected cells by LC-MS analysis; format: ADME, cell-based, Canis lupus familiaris
[3] = Unbound brain-to-plasma concentration ratio in rat at 3 mg/kg, po measured after 120 mins; format: ADME, organism-based; settings: brain and plasma, read-out: K(p,uu,brain)
[4] = AUC (infinity) in Sprague-Dawley rat at 3 mg/kg, po upto 24 hrs by LC/MS/MS analysis; format: ADME, organism-based; design: dose 3 mg/kg, time < 24 hrs, route po; settings: in vivo
[5] = Plasma protein binding in dog at 5 uM; format: ADME, cell-free, Canis lupus familiaris; settings: read-out: PPB (converted)
[6] = target: T1, Very long chain fatty acid elongase 7 (Homo sapiens, UniProt A1L3X0); assay: Inhibition of ELOVL7 (unknown origin) using C18-acyl-CoA as substrate by radiometric enzyme assay
T1 sequence (A1L3X0 whole entry): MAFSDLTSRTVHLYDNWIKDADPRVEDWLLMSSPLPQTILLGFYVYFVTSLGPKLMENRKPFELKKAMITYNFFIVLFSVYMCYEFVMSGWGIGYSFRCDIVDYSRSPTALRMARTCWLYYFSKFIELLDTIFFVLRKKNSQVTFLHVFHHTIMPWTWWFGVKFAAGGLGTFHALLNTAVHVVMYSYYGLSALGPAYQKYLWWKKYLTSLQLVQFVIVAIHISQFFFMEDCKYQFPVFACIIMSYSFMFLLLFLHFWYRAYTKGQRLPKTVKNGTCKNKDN

[7] = Intrinsic clearance in human hepatocytes assessed per million cells; format: ADME, cell-based, Hepatocyte; settings: read-out: CLH
[8] = Intrinsic clearance in rat hepatocytes assessed per million cells; format: ADME, cell-based, Hepatocyte; settings: read-out: CLH
[9] = Volume of distribution at steady state in Sprague-Dawley rat at 1 mg/kg, iv upto 48 hrs by LC/MS/MS analysis; format: ADME, organism-based; settings: in vivo, read-out: Vdss
[10] = Tmax in Cynomolgus monkey at 3 mg/kg, po upto 24 hrs by LC/MS/MS analysis; format: ADME, organism-based, Macaca fascicularis; settings: in vivo
[11] = Oral bioavailability in Cynomolgus monkey at 3 mg/kg upto 24 hrs by LC/MS/MS analysis; format: ADME, organism-based, Macaca fascicularis; settings: in vivo
[12] = Plasma protein binding in rat at 5 uM; format: ADME, cell-free; settings: read-out: PPB (converted)
[13] = Plasma protein binding in human at 5 uM; format: ADME, cell-free; settings: read-out: PPB (converted)
[14] = Reduction of C26:0 /C16:0 LPC level in ABCD1 KO mouse blood at 5 mg/kg, po qd for 8 months by LC-MS/MS analysis relative to control; format: functional; design: scale not given: the % may be the effect or the level left; settings: 5840 h
[15] = Reduction in C26:0/C16:0 LPC level in wild-type Sprague-Dawley rat at 100 mg/kg, po qd treated for 7 days by LC-MS/MS analysis; format: functional; design: scale not given: the % may be the effect or the level left; settings: time 7 day
[16] = Reduction in C26:0/C16:0 LPC level in wild-type Sprague-Dawley rat at 300 mg/kg, po qd treated for 7 days by LC-MS/MS analysis; format: functional; design: scale not given: the % may be the effect or the level left; settings: time 7 day
[17] = Reduction in C26:0 LPC level in Cynomolgus monkey plasma at 15 mg/kg, po qd for 13 weeks by LC-MS/MS analysis; format: functional, Macaca fascicularis; design: scale not given: the % may be the effect or the level left
Mus musculus [18] = assay: Reduction in C26:0/C16:0 LPC level in high fat diet fed ABCD1 knock out mouse blood at 1 to 8 mg/kg, po qd measured on day 28 after 7 days of treatment discontinuation by LC-MS/MS analysis; format: functional, organism-based; settings: dose 1-8 mg/kg, time 28.0 day
[19] = Reduction in C26:0/C16:0 LPC level in ABCD1 knock out mouse CNS at 10 mg/kg, po qd measured after 3 months of dosing by LC-MS/MS analysis; format: functional; design: scale not given: the % may be the effect or the level left; settings: 2190 h
[20] = Reduction in C26:0 LPC level in ABCD1 knock out mouse CNS at 4 mg/kg, po qd measured after 6 months of dosing by LC-MS/MS analysis; format: functional; design: scale not given: the % may be the effect or the level left; settings: 4380 h
Mus musculus [21] = assay: Reduction in C24:0/C16:0 LPC level in ABCD1 knock out mouse CNS at 1 to 10 mg/kg, po qd measured after 3 months of dosing by LC-MS/MS analysis; format: functional, organism-based; settings: dose 1-10 mg/kg
[22] = Increase in C20:0/C16:0 LPC level in ABCD1 knock out mouse CNS at 1 mg/kg, po qd measured after 3 months of dosing by LC-MS/MS analysis; format: functional; settings: 2190 h
[23] = Toxicity in ABCD1 knock out mouse assessed as noticeable adverse effects at 8 to 32 mg/kg, po qd treated for 6 months; format: organism-based; settings: in vivo, 4380 h, dose 8-32 mg/kg
[24] = Toxicity in Sprague-Dawley rat assessed as corneal keratitis at 5 mg/kg/day, po administered for 8 weeks by macroscopic observation analysis; format: organism-based; settings: in vivo, 1344 h
[25] = Toxicity in juvenile Sprague-Dawley rat assessed as corneal mineralization at 5 to 75 mg/kg/day, po treatment started from postnatal day 18 to 114 days; format: organism-based; settings: in vivo, dose lower 5 mg/kg/day, time lower 18 day, dose upper 75 mg/kg/day, time upper 114 day
[26] = Toxicity in juvenile Sprague-Dawley rat assessed as ocular inflammation at 5 to 75 mg/kg/day, po treatment started from postnatal day 18 to 114 days; format: organism-based; settings: in vivo, dose lower 5 mg/kg/day, time lower 18 day, dose upper 75 mg/kg/day, time upper 114 day
[27] = Toxicity in Cynomolgus monkey assessed as neurological signs of convulsions at 50 mg/kg/day, po administered for 14 days; format: organism-based, Macaca fascicularis; settings: in vivo, 336 h, time 14 day
[28] = Toxicity in Cynomolgus monkey assessed as minimal focal gliosis at 20 to 50 mg/kg/day, po administered for 14 days; format: organism-based, Macaca fascicularis; settings: in vivo, 336 h, dose 20-50 mg/kg/day, time 14 day
[29] = Toxicity in Cynomolgus monkey assessed as skin lesions at 5 to 50 mg/kg/day, po administered for 14 days; format: organism-based, Macaca fascicularis; settings: in vivo, 336 h, dose 5-50 mg/kg/day, time 14 day
[30] = Toxicity in Cynomolgus monkey assessed as acanthosis at 5 to 50 mg/kg/day, po administered for 14 days by microscopic observation analysis; format: organism-based, Macaca fascicularis; settings: in vivo, 336 h, dose 5-50 mg/kg/day, time 14 day
[31] = Toxicity in Cynomolgus monkey assessed as adverse skin lesions at 20 to 50 mg/kg/day, po administered for 14 days; format: organism-based, Macaca fascicularis; settings: in vivo, 336 h, dose 20-50 mg/kg/day, time 14 day
[32] = Toxicity in Cynomolgus monkey assessed as skin lesions at 1 mg/kg/day, po observed from 8 to 13 weeks; format: organism-based, Macaca fascicularis; settings: in vivo, time 8-13 weeks

F [1]: 66% | Ratio [2]: 1.1 | Kp uu at 2 h [3]: 1.1 | AUC [4]: 442 ng·h/mL | fraction unbound at 5 µM [5]: 0.061 | IC50 [6]: > 500 µM | hepatocyte CLint [7]: < 4 µL/min/1e6 cells | hepatocyte CLint [8]: 14 µL/min/1e6 cells | Vd [9]: 4 L/kg | Tmax [10]: 2.3 h | bioavailability [11]: 100% | fraction unbound at 5 µM [12]: 0.071 | fraction unbound at 5 µM [13]: 0.062
Structure (SMILES): O=C(Nc1ccn(-c2ccnc(F)c2)n1)C1(c2ccccc2F)CC1
Activity [14]: 60% | Activity [15]: 77% | Activity [16]: 85% | Activity [17]: 82% | Activity (Mus musculus [18]): Active | Activity [19]: 34% | Activity [20]: 57% | Activity (Mus musculus [21]): Active | Activity [22]: 18% | Activity [23]: Non-Toxic | Activity [24]: Toxic | Activity [25]: Toxic | Activity [26]: Toxic | Activity [27]: Toxic | Activity [28]: Toxic | Activity [29]: Toxic | Activity [30]: Toxic | Activity [31]: Toxic | Activity [32]: Non-Toxic
